Series [1] relates to AChE. The conditions noted are these: vs (±)-huperzine A; cited from earlier work.
In series [2] the test system is squirrel monkeys. Particulars: cited from earlier work.
For series [3], the system named is mice. The conditions noted are these: cited from earlier work.
In series [4] the test system is myasthenia gravis. The conditions noted are these: 128 patients; cited from earlier work.
For series [5], the system named is animals. The conditions noted are these: studies performed in China; cited from earlier work.
The target in series [6] is T1, AChE (Rattus norvegicus, UniProt P37136).
T1 construct: from tissue; host or cells: rat hippocampus, crude homogenate (P2 synaptosome-rich fraction)
Nature of the series: biochemical. On the procedure:
*Assayed using rat hippocampal crude homogenates over a concentration
in 10% DMSO made up in the incubation buffer medium. In addition, those
hydrochloric acid and sonicated briefly until they dissolved in the
solution. In each case, the control medium always consisted of the same
ingredients as those which were used to dissolve the compound under
The activity of these new compounds was assayed using AChE isolated from rat brain. […] Rats were killed by decapitation and the brains were extirpated rapidly. […] Homogenates were centrifuged at 1000×g for 10 min to remove cell nuclei and heavy debris. […] A portion of this synaptosome-rich fraction was added in triplicate to ice-cold pH 7.4 Krebs-Ringer medium.
Assay of AChE was carried out according to the method described in C. […] Tissue homogenate was incubated for 30 min at 30° C. in a final volume of […] containing 75 mM sodium phosphate buffer, pH 7.0, and 1.5 mM [^14 C]acetylcholine (1.9 mCi/mmol). […] The tubes were vortexed for 10 sec, then centrifuged for 1 min. The bottom aqueous layer was quickly frozen in a dry ice/acetone bath, and the top organic layer aspirated off. Finally, the buffer was allowed to thaw, and a 25 μl portion was counted for the amount of [^14 C]acetate formed. The amount of residual [^14 C]acetylcholine left in the buffer by the extraction step alone was determined by subtracting from the tissue sample values of [^14 C]acetylcholine measured in a blank sample that contained buffer and substrate, but no tissue.

In series [7] the test system is AChE. Particulars: as AChE inhibitors for treatment of AD; cited from earlier work.
For series [8] the following is noted: 0.65 mg/kg i.m.; cited from earlier work.
The test system of series [9] is AChE. Particulars: 0.65 mg/kg i.m.; cited from earlier work.
In series [10] the test system is Alzheimer's Disease. Particulars: cited from earlier work.

Read-outs that look alike come from different tables or passages of the source.

T1 sequence (P37136 32-614): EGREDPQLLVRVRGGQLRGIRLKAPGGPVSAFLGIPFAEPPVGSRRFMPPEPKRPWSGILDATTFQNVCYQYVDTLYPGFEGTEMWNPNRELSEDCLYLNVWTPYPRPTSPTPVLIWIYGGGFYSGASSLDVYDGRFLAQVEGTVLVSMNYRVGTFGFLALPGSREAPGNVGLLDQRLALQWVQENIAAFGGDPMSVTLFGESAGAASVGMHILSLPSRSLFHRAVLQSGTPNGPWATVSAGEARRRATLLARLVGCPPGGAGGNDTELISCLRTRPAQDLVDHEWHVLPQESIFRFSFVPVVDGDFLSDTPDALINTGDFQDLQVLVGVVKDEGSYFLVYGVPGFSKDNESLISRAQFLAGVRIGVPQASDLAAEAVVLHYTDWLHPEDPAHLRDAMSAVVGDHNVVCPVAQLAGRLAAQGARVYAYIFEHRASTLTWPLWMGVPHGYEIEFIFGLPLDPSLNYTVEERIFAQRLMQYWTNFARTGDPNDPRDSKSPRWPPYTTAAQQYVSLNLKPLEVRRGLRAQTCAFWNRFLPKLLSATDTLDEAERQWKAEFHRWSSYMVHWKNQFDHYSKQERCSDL

For the compound `C/C=C1\C2C=C(C)CC1(CN)c1ccc(=O)[nH]c1C2` (stereo not shown), in [1], the “times less potent than (±)-huperzine A as an inhibiter of AChE” value is recorded as “about 166 times”.
As to `CC=C1C2C=C(C)CC1(N)c1ccc(=O)[nH]c1C2` (single isomer, unassigned; (-)) [Compound 1a, (-)-Huperzine A], the cognition enhancement result in series [2] and in series [3] was “effective cognition enhancer” in each case. The “control of the clinical manifestations of myasthenia gravis (cases)” value in series [4] is 99%. Moreover, the memory and learning result in series [5] was “improve memory and learning in animals”.
The IC50 is the concentration needed to halve the response being measured. Take `CC=C1C2CCCC1(N)c1ccc(=O)[nH]c1C2` (stereo not shown) [Compound 3, C15 -desmethyl-(C8 -C15)dihydrohuperzine]: the IC50 in [6] (AChE isolated from rat brain, read-out: IC50 value (AChE)) is 1.3e-05 M. The “fold less potent than natural huperzine A” value in series [6] (considering the racemic nature of compound 3) is given as “at least fifty-fold”.
For `CC1=C[C@H]2Cc3[nH]c(=O)ccc3[C@]3(C1)NCCC[C@H]23` [huperzine B], the “comparison with THA and physostigmine” value in series [7] is “appear superior to THA and physostigmine”. Besides, the memory and learning entry in [5] was “improve memory and learning in animals”.
With `CNC(=O)Oc1ccc2c(c1)[C@]1(C)CCN(C)[C@@H]1N2C` [physostigmine], the side effects result in series [8] was “causes considerable side effects”. Moreover, the “maximal duration of action (AChE inhibitory action)” value in series [9] is reported as not above 60 min. For the same compound, the cognitive improvement entry in series [10] was “modest cognitive improvement”.
As for `CC1=CC2Cc3[nH]c(=O)ccc3C(N)(C1)/C2=C/Cl` (stereo not shown) [Compound 13, 11-DESMETHYL-11-CHLORO-HUPERZINE A], the midpoint of inhibition in [6] (AChE IC50 (M)*, Table I, rat hippocampal crude homogenates, 10^-11 M to 10^-3 M, 10% DMSO in buffer), the IC50, lay at 8.09e-07 M.
